Laboratory results taken from publication PMC8058616 (Bioorganic & medicinal chemistry, 2021).
Where two headings read alike, the source gives them in different places.

Legend:
[1] = system: KB human tumor cells; conditions: AICA 320 μM, as previously reported ref 40; cited from earlier work
[2] = system: PC43–10 CHO cells (human RFC); conditions: read-out: IC50 PC43–10 (RFC); 96 h; mean (SE); previously published ref 7, 40; cited from earlier work
[3] = system: PC43–10 CHO cells (human RFC); assay: Proliferation assay, RFC-expressing PC43–10 CHO cells; conditions: PC43-10, 96 h, read-out: IC50 PC43–10 (RFC)
[4] = system: NCI-IGROV1 ovarian cancer cells; assay: Proliferation assay, NCI-IGROV1 EOC cells; type: cell-based, human; conditions: 96 h; for IC50: Homo sapiens
[5] = system: KB nasopharyngeal carcinoma cells; assay: Proliferation assay, KB human tumor cells; type: cell-based; conditions: 96 h, read-out: IC50 KB (+FA)
[6] = system: KB human tumor cells; assay: Nucleoside/AICA protection of KB cell proliferation; conditions: AICA 320 μM
[7] = target: T1, human GARFTase (Homo sapiens, UniProt P22102); assay: In vitro spectrophotometric GARFTase assay with purified enzyme; type: biochemical; conditions: ratio of Ki values
T1 sequence (P22102 808-1010): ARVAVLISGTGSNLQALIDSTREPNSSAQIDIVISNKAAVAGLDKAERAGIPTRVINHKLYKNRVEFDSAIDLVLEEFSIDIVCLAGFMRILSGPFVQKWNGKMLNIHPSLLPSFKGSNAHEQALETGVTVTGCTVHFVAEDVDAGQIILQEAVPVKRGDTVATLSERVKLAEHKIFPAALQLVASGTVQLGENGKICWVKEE

[8] = target: human AICARFTase/IMP cyclohydrolase (ATIC) (Homo sapiens, UniProt P31939); assay: In vitro spectrophotometric AICARFTase; type: biochemical; conditions: ratio of Ki values
[9] = system: NCI-IGROV1 EOC cells; assay: Targeted metabolomics; type: cell-based, human; conditions: 1 μM inhibitor, 48 h; for Increase in ZMP (AICAR) level: relative to control
[10] = read-out: IC50 NCI-IGROV1 (+FA)
[11] = read-out: IC50 NCI-IGROV1 (RFC/FRα/PCFT)

Chain of human AICARFTase/IMP cyclohydrolase (ATIC) (P31939 whole entry): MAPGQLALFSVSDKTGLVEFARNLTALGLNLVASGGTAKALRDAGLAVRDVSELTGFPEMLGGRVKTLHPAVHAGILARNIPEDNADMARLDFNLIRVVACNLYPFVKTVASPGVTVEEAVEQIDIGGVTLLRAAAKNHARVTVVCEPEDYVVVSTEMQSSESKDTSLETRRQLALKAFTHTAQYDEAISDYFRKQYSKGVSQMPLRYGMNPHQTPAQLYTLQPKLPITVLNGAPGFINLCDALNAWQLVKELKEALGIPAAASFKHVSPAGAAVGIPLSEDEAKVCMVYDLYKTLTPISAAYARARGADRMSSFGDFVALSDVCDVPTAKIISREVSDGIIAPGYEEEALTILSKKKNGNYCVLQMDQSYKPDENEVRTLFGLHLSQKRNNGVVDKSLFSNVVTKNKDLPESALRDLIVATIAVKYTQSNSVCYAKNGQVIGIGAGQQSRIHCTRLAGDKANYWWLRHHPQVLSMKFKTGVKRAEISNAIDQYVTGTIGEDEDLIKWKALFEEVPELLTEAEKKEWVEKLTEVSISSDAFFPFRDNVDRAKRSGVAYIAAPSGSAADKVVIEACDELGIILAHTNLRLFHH

IC50 [4, 10]	IC50 [5]	Compound	IC50 [3]	other results
		Nc1nc2sc(CCCCc3ccc(C(=O)N[C@@H](CCC(=O)O)C(=O)O)cc3)cc2c(=O)[nH]1 [Compound 2]		Protection by AICA [1]: incomplete protection; IC50 [2]: > 1 µM
> 1 µM	> 1 µM	Nc1nc2sc(CCCc3cc(C(=O)N[C@@H](CCC(=O)O)C(=O)O)cs3)cc2c(=O)[nH]1 [Compound 7, (5-(3-(2-amino-4-oxo-3,4-dihydrothieno[2,3-d]pyrimidin-6-yl)propyl)thiophene-3-carbonyl)-L-glu-tamic acid]	> 1 µM	
		Nc1nc2[nH]cc(CCCCc3ccc(C(=O)N[C@@H](CCC(=O)O)C(=O)O)cc3)c2c(=O)[nH]1 [AGF23]		Protection by AICA [6]: completely protected
> 1 µM	> 1 µM	Nc1nc2sc(CCCCc3cc(C(=O)N[C@@H](CCC(=O)O)C(=O)O)cs3)cc2c(=O)[nH]1 [Compound 8, (5-(4-(2-amino-4-oxo-3,4-dihydrothieno[2,3-d]pyrimidin-6-yl)butyl)thiophene-3-carbonyl)-L-glutamic acid]	> 1 µM	Fold decreased GARFTase Ki over lead compound 2 [7]: ~ 20 fold; IC50 NCI-IGROV1 (RFC/FRα/PCFT) ([4]; without folic acid, mean (SE)): inert; IC50 [4, 11]: > 1 µM; Fold decreased AICARFTase Ki over lead compound 2 [8]: ~ 9 fold
> 1 µM	> 1 µM	Nc1nc2sc(CCCc3csc(C(=O)N[C@@H](CCC(=O)O)C(=O)O)c3)cc2c(=O)[nH]1 [Compound 6, (4-(3-(2-amino-4-oxo-3,4-dihydrothieno[2,3-d]pyrimidin-6-yl)propyl)thiophene-2-carbonyl)-L-glutamic acid]	> 1 µM	
> 1 µM	> 1 µM	Nc1nc2sc(CCCCc3csc(C(=O)N[C@@H](CCC(=O)O)C(=O)O)c3)cc2c(=O)[nH]1 [Compound 9, (4-(4-(2-amino-4-oxo-3,4-dihydrothieno[2,3-d]pyrimidin-6-yl)butyl)thiophene-2-carbonyl)-L-glutamic acid]	> 1 µM	

Compound	IC50 [4, 10]	IC50 [5]	IC50 [3]	other results
Nc1nc2sc(CCCCc3ccc(C(=O)N[C@@H](CCC(=O)O)C(=O)O)o3)cc2c(=O)[nH]1 [Compound 4, (5-(4-(2-amino-4-oxo-3,4-dihydrothieno[2,3-d]pyrimidin-6-yl)butyl)furan-2-carbonyl)-L-glutamic acid]	> 1 µM	> 1 µM	> 1 µM	IC50 [4, 11]: > 1 µM
Nc1nc2sc(CCCc3ccc(C(=O)N[C@@H](CCC(=O)O)C(=O)O)s3)cc2c(=O)[nH]1 [Compound 5, (5-(3-(2-amino-4-oxo-3,4-dihydrothieno[2,3-d]pyrimidin-6-yl)propyl)thiophene-2-carbonyl)-L-glutamic acid]	> 1 µM	> 1 µM	> 1 µM	fGAR level, % of control [9]: ~ 75 % of control; Increase in ZMP (AICAR) level [9]: 3 fold
Nc1nc2sc(CCCCc3ccc(C(=O)N[C@@H](CCC(=O)O)C(=O)O)s3)cc2c(=O)[nH]1 [Compound 3, (5-(4-(2-amino-4-oxo-3,4-dihydrothieno[2,3-d]pyrimidin-6-yl)butyl)thiophene-2-carbonyl)-L-glutamic acid]	> 1 µM	> 1 µM	> 1 µM	fGAR level, % of control [9]: ~ 50 % of control; Increase in ZMP (AICAR) level [9]: 2 fold
